The values below come from patent US20240216395A1, “19-NOR C3,3-DISUBSTITUTED C21 -N-PYRAZOLYL STEROID FOR USE IN TREATING MAJOR DEPRESSIVE DISORDER AND […]” (priority 2021, published 2024).

For the series, the system named is nondependent, recreational users of CNS depressants. As to the kind of experiment: Abuse potential study: MOAA/S sedation scores (dose selection and main study). The format is in vivo, human. The following applies: dose selection, 60, 80 or 90 mg. As for the experimental part:
The first part of the study, dose selection, was a 3-cohort, randomized, double-blind, placebo-controlled, dose-escalation design to identify 2 doses higher than Compound (1)'s anticipated therapeutic dose (30 mg) to carry forward into the main study (FIG. 30A-30B) (U.S. Department of Health and Human Services Food and Drug Administration, Center for Drug Evaluation and Research (CDER). Assessment of abuse potential of drugs: guidance for industry. January, 2017; Griffiths R R, et al. Drug Alcohol Depend. 2003; 70(3):S41-54; Schoedel K, Sellers E. Clin Pharmacol Ther. 2008; 83(4):622-626). The 2 doses were selected based on their safety and tolerability in the dose selection phase, as assessed during sentinel dosing (described below) by the safety and tolerability endpoints (described below). […]
MOAA/S scores were assessed before dose administrations and at multiple time points (1, 2, 3, 4, 5, 6, 7, 8, 10, 12, and 24 hours) after dosing using a 6-point scale, ranging from 0 (no response after painful trapezius squeeze) to 5 (responds readily to name spoken in a normal tone; Table 18). Electrocardiogram measures and the C-SSRS were assessed during screening, admission, at Day 3, and/or at early termination, and AEs/SAEs were assessed on an ongoing basis during enrollment in the study. […]

Consider `C[C@@]1(O)CC[C@H]2[C@H](CC[C@@H]3[C@@H]2CC[C@]2(C)[C@@H](C(=O)Cn4cc(C#N)cn4)CC[C@@H]32)C1` [Compound (1), 1-(2-((3R,5R,8R,9R,10S,13S,14S,17S)-3-hydroxy-3,13-dimethylhexadecahydro-1H-cyclopenta[a]phenanthren-17-yl)-2-oxoethyl)-1H-pyrazole-4-carbonitrile], for which the “Time for all MOAA/S scores to return to baseline score of 5” value is recorded as at most 8 hours postdose. The “MOAA/S score (mild sedation) in 1 to 4 participants of at least 1 cohort” value (2-7 hours postdose) is 2-4.
